From PMC7215373, “Design, Synthesis, and Anticancer Evaluation of Novel Indole Derivatives of Ursolic Acid as Potential Topoisomerase II Inhibitors” (International Journal of Molecular Sciences, 2020)
Read-outs that look alike come from different tables or passages of the source.

What was measured:
[1] = tested on: HepG2 cells; design: method as in PMID 25537271; conditions: earlier in vitro cytotoxic assay; read-out: IC50 against HepG2; cited from earlier work
[2] = tested on: HepG2 cells; test: MTT cytotoxicity assay, HepG2; type: cell-based, human; conditions: Homo sapiens, HepG2, 48 h, 48 h exposure
Protocol: (§1) The in vitro cytotoxic activities of synthesized compounds were evaluated against two human hepatocarcinoma cell lines (SMMC-7721 and HepG2) and the human normal hepatocyte cell line (LO2) via MTT assay. All tested compounds were dissolved in DMSO and the stock solutions were diluted by DMEM medium before treatment of the cultured cells. […] Cell lines were obtained from American Tissue Culture Collection (ATCC). Briefly, different tumor cells were grown in DMEM medium supplemented with 10% fetal bovine serum, penicillin (100 U/mL), and streptomycin (50 μg/mL). Cells were harvested at log phase of growth and seeded in 96-well plates (100 μL/well at a density of 2 × 10^5 cells/mL). After 24 h incubation at 37 °C and 5% CO2 to allow cell attachment, cultures were exposed to various concentrations of the isolated compounds for 48 h. Finally, MTT solution (2.5 mg/mL in PBS) was added (40 μL/well). Plates were further incubated for 4 h at 37 °C, and the formazan crystals formed were dissolved by adding 150 μL/well of DMSO. Absorption at 570 nm was measured with an ELISA plate reader. […] Doxorubicin, camptothecin, and etoposide (VP-16) were co-assayed as positive controls.

[3] = tested on: SMMC-7721 cells; design: method as in PMID 25537271; conditions: earlier in vitro cytotoxic assay; read-out: IC50 against SMMC-7721; cited from earlier work
[4] = tested on: LO2 cells; test: MTT cytotoxicity assay, normal hepatocyte LO2; type: cell-based; conditions: Homo sapiens, L02, 48 h exposure, normal hepatocyte cell line
Protocol: as §1

[5] = biological target: T1, Human Topoisomerase IIα (Homo sapiens, UniProt P11388); test: Topoisomerase II relaxation assay (supercoiled pBR322); type: biochemical; conditions: for inhibition at 20 µM: 20 μM compound, read-out: Topo II Inhibition (%) 20 μM; for inhibition at 100 µM: 100 μM compound, read-out: Topo II Inhibition (%) 100 μM
T1 construct: purchased USB, Affymetrix, Waltham, MA, USA
T1 sequence (P11388 whole entry): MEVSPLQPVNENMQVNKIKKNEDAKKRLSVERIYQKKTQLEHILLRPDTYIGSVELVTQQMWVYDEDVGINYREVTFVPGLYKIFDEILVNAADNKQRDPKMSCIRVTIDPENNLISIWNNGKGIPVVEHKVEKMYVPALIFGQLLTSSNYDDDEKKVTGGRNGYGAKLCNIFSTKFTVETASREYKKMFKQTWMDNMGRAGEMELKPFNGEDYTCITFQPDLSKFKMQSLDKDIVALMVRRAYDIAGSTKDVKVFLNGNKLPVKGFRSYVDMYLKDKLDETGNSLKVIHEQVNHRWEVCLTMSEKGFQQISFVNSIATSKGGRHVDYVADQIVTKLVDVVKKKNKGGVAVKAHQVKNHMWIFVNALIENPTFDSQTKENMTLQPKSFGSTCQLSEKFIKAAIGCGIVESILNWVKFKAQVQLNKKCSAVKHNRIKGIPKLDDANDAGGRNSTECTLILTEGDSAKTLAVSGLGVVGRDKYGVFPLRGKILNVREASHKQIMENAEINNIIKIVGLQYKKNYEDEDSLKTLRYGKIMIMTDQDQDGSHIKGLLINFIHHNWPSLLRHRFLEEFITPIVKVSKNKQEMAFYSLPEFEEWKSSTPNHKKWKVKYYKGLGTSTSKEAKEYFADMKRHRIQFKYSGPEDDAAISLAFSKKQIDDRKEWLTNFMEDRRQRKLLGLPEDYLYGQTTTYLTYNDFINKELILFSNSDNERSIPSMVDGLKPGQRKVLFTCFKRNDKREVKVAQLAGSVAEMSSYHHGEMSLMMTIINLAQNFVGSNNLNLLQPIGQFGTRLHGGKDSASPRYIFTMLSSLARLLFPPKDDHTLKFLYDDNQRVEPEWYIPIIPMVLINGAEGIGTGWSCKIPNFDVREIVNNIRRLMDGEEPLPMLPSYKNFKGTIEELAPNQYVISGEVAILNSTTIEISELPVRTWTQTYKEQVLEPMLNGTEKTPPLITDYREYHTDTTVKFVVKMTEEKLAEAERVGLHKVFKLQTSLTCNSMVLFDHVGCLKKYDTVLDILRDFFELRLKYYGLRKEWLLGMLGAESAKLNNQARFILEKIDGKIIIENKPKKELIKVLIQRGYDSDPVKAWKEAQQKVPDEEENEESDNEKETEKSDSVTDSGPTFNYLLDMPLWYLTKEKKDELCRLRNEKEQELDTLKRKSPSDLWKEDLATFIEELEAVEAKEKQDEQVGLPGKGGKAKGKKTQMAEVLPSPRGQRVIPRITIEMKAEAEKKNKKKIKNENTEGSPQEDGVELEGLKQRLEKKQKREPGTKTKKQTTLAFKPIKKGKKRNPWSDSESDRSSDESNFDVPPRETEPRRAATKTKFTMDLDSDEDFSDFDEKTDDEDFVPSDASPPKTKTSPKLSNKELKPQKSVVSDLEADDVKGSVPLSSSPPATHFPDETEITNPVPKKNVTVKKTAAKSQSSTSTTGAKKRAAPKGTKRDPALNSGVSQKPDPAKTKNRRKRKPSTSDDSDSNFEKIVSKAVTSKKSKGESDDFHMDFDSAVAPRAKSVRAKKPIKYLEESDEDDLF
Protocol: The effect of the tested compounds on Topo I and II activities were evaluated by Topo I/II relaxation assays. The reaction products, relaxed DNA could be distinguished from supercoiled DNA by gel electrophoresis and visualized using gel imaging system. Human Topoisomerase IIα activity was detected by measuring the relaxation of supercoiled pBR322 plasmid DNA [22]. […] For inhibition studies, the compounds were pre-incubated with human Topo IIα and DNA for 15 min. Compounds were used at the appropriate concentrations by dissolving in 2% (v/v) DMSO. DMSO didn't show detrimental effect on the enzyme activity at concentration up to 2% (v/v). Reaction mixture was incubated at 37 °C for 30 min and stopped by the addition of 7 mM EDTA. Reaction product was mixed with DNA loading dye and electrophoresed on 1% TAE-Agarose. The gel was stained with ethidium bromide (0.5 μg/mL) for 30 min, destained twice in 1× TAE buffer, and then visualized using a BIO-RAD Gel Doc XR+ System. Etoposide (VP-16) was co-assayed as a positive control.

[6] = biological target: T2, DNA topoisomerase I (Bos taurus, UniProt F1MN93); test: Topoisomerase I relaxation assay (supercoiled pBR322); type: biochemical; conditions: for inhibition at 100 µM: 100 μM compound, read-out: Topo I Inhibition (%) 100 μM
T2 construct: purchased TaKaRa, Kyoto, Japan
T2 sequence (F1MN93 1-767): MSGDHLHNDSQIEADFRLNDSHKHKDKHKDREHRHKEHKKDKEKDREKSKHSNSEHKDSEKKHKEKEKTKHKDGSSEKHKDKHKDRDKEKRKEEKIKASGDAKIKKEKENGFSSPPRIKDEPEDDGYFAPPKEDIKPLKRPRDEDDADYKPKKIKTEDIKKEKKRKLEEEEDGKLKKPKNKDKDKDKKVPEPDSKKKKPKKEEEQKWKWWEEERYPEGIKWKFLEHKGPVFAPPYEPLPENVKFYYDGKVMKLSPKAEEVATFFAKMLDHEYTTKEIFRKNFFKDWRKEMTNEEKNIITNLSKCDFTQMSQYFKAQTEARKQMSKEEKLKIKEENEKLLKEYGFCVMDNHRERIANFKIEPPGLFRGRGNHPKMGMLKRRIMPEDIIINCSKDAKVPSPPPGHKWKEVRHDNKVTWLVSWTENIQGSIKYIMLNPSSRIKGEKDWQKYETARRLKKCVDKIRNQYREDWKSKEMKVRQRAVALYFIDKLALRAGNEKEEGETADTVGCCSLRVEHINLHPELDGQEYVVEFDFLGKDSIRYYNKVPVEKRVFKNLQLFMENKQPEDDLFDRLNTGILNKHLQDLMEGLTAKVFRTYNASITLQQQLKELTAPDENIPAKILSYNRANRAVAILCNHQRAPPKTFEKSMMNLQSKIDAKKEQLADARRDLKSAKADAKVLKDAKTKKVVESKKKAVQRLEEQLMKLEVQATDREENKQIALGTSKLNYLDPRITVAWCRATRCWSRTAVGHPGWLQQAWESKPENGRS
Protocol: The effect of the tested compounds on Topo I and II activities were evaluated by Topo I/II relaxation assays. The reaction products, relaxed DNA could be distinguished from supercoiled DNA by gel electrophoresis and visualized using gel imaging system. The activity of DNA topoisomerase I (TaKaRa, Kyoto, Japan) was determined by measuring the relaxation of supercoiled DNA pBR322 [32]. Camptothecin was used as a positive control. The reaction mixture was prepared according to the manufacture's protocol, and incubated at 37 °C for 30 min. The reactions were terminated by adding dye solution containing 1% SDS, 0.02% bromophenol blue and 50% glycerol. The mixtures were applied to 1% agarose gel and subjected to electrophoresis for 1 h, in 1× TAE buffer (40 mM Tris-acetate, 1 mM EDTA). Gels were stained for 30 min in 60 mL 1× TAE buffer with ethidium bromide (0.5 μg/mL). DNA bands were visualized by transillumination with UV light and then photographed by a Gel Doc XR+ System (BIO-RAD, Hercules, CA, USA).

[7] = tested on: SMMC-7721 cells; test: MTT cytotoxicity assay, SMMC-7721; type: cell-based, human; conditions: Homo sapiens, SMMC-7721, 48 h, 48 h exposure
Protocol: as §1

SMILES | IC50 [1] | IC50 [2] | IC50 [3] | IC50 [4] | inhibition at 20 µM [5] | inhibition at 100 µM [5] | inhibitory activity to Topo IIα ([5]; preliminary screening) | inhibition at 20 µM ([6]; 20 μM compound, read-out: Topo I Inhibition (%) 20 μM) | inhibition at 100 µM [6] | inhibitory activity to Topo I ([6]; preliminary screening) | IC50 [7] | melting point
Cc1ccc2[nH]c3c(c2c1)C[C@@]1(C)C(CC[C@]2(C)C1CC=C1C4[C@@H](C)[C@H](C)CC[C@]4(C(=O)NCCCN(C)C)CC[C@]12C)C3(C)C (stereo partly shown) [5b, N-(3-(Dimethylamino)propyl)-5′-methyl-1′H-ursa-2,12-dieno[3,2-b]indol-28-carboxamide] | ~1 µM | 1.26 ± 0.17 µM | ~1 µM | 20.7 ± 1.73 µM | 38.2% | 72.5% | considerable inhibitory activity | 9% | 34.2% | considerable inhibitory activity | 1.08 ± 0.22 µM | 
Cc1ccc2[nH]c3c(c2c1)C[C@@]1(C)C(CC[C@]2(C)C1CC=C1C4[C@@H](C)[C@H](C)CC[C@]4(C(=O)NCCCNC(=O)[C@]45CC[C@@H](C)[C@H](C)C4C4=CCC6[C@@]7(C)Cc8c([nH]c9ccc(C)cc89)C(C)(C)C7CC[C@@]6(C)[C@]4(C)CC5)CC[C@]12C)C3(C)C (stereo partly shown) [7b, N,N′-(propane-1,3-diyl)-bis(5′-methyl-1′H-ursa-2,12-dieno[3,2-b]indol-28-carboxamide)] |  | > 50 µM |  | > 50 µM | 9.8% | 17.8% |  |  | 2% |  | > 50 µM | 276 to 278 °C
Cc1ccc2[nH]c3c(c2c1)C[C@@]1(C)C(CC[C@]2(C)C1CC=C1C4[C@@H](C)[C@H](C)CC[C@]4(C(=O)NCCCCNC(=O)[C@]45CC[C@@H](C)[C@H](C)C4C4=CCC6[C@@]7(C)Cc8c([nH]c9ccc(C)cc89)C(C)(C)C7CC[C@@]6(C)[C@]4(C)CC5)CC[C@]12C)C3(C)C (stereo partly shown) [7c, N,N′-(butane-1,4-diyl)-bis(5′-methyl-1′H-ursa-2,12-dieno[3,2-b]indol-28-carboxamide)] |  | > 50 µM |  | > 50 µM | 8.1% | 16.9% |  |  | 0% |  | > 50 µM | 255 to 258 °C
